The text below walks through data of article PMC8828953, “In vitro Bioaccessibility and Intestinal Absorption of Selected Bioactive Compounds in Terminalia ferdinandiana” (Frontiers in Nutrition, 2022).

Where “and” joins values, the source holds several entries; their conditions need not be identical. Equal entries are not always repeated. Entries after “also recorded” stand apart in the source; their conditions may differ. Where two headings read alike, the source gives them in different places. Marks after values point to notes of the source that are not given here.

Series [1] is described as follows: Intestinal absorption assay (Papp, apical to basolateral) across Caco-2-HT29-MTX-E12 coculture on Transwell. In kind it is in vitro ADME, human. To be noted: human, 10:1 dilution, applied 2 h, read-out: Apparent permeability (Papp). The procedure: (§1) Caco-2 and HT-29-MTX-E12 cells were seeded on Costar Transwell® plate inserts in a ratio of 9:1 and at a density of 1,09,000 cells/cm^2 and 12,120 cells/cm^2, respectively. Cells were cultured in growth media at 37°C and 5% CO2 for 21 days to facilitate cell differentiation and formation of an intact monolayer. During the 21-day differentiation period, growth media was removed and replaced with fresh media every 2–3 days. Cell differentiation of an intact monolayer was monitored by measuring the transepithelial electrical resistance (TEER) of the cell monolayer in an apical–basolateral direction. TEER was measured using the Millicell-ERS Voltohmmeter from Millipore (Burlington, MA, USA). TEER is a measurement of resistance and is a sensitive and convenient method to assess and the integrity of the cell monolayer. The values obtained are determined by cellular resistance (between apical and basolateral membrane) and the paracellular resistance (tight junctions). TEER values above 300 Ω.cm^2 are indicative of differentiated Caco-2-HT29-MTX-E12 cells and an intact monolayer ([17]).
(§2) In vitro absorption was performed by following the procedure described by Osborne and colleagues ([18]). On the day of the intestinal absorption assay, TEER was measured and growth media was replaced with HBSS in the apical and basolateral chambers for 2 h to enhance uptake of the applied digesta. For the absorption study, intestinal digesta samples (I30, I60, and I120) were diluted 10:1 with HBSS. […] In the apical chamber, 200 μL diluted intestinal digesta (I30, I60, and I120) were applied for 120 min. HBSS (600 μL) was added in the basolateral chamber. After 2 h, all apical and basolateral samples were collected and stored at−80°C. HBSS was replaced with growth media in all chambers with TEER values measured again immediately after the assay. TEER was also recorded 24 and 48 h after the assay. Intestinal absorption studies were performed in duplicate. The rate of EA, AA, OA, and Ca^2+ movement across the transwell® membrane was determined by calculating the apparent permeability coefficient (Papp) in cm/s as follows ([19]):
(§3) ΔQ/Δt is steady-state appearance rate of compound in receiver (basolateral) compartment (μmol/s).
(§4) A is the surface area of the filter (i.e., 0.33 cm^2).
(§5) C0 is the initial concentration in the donor (apical) compartment (μM).
(§6) Intestinal absorption of AA, EA, OA, and Ca^2+ from digested T. ferdinandiana powder was measured using Caco-2-HT29-MTX-E12 coculture cell monolayers. Intestinal digesta samples that were collected at different time points (I30, I60, and I120) throughout the in vitro digestion were applied to the coculture transwell model for 120 min before apical and basolateral samples were collected. The amount of AA, EA, OA, and Ca^2+ was measured in the digesta initially applied to the apical chamber of the transwell model, and in samples collected from the basolateral chamber. Apparent permeability (Papp) was calculated with statistical significance observed (p ≤ 0.05) in Papp values obtained from the applied I30, I60, and I120 digesta samples (Figure 4 and Table 2).

Series [2] in a line: INFOGEST static in vitro gastrointestinal digestion, bioaccessibility from T. ferdinandiana freeze-dried powder. In kind it is in vitro ADME. The procedure: Freeze-dried T. ferdinandiana powder (0.5 g) was mixed with 20 mL milli-Q water, vortexed, and used as the initial starting material for in vitro gastrointestinal digestion based on the INFOGEST model detailed in Section INFOGEST Gastrointestinal in vitro Digestion ([14]). Digestions were performed in duplicate with samples collected at various time points throughout the digestion process. Gastric digesta samples were collected at t = 0 (G0) and t = 60 (G60) min into the gastric phase, and intestinal digesta were collected at t = 30 (I30), t = 60 (I60), and t = 120 (I120) min into the intestinal digestion phase.
A harmonized in vitro gastrointestinal digestion method developed in the COST action INFOGEST network was applied ([14]). Oral phase was not included in this experiment as T. ferdinandiana fruit is currently marketed as freeze-dried powder that would not undergo a substantial oral phase or may be incorporated into a nutraceutical product in pill, capsule, or beverage form. The digestive fluids (simulated salivary fluid (SSF), simulated gastric fluid (SGF), and simulated intestinal fluid (SIF)) were prepared according to the INFOGEST method ([14]). The activity of all enzymes was also measured according to the protocols described in the INFOGEST method ([14]) to ensure standardized application. […] Porcine pancreatin was used at 16 units/mL trypsin activity. […] Figure 1 provides an overview of the digestion protocols and conditions employed in the study. At the end of each digestion steps, samples were collected and snap-frozen (−80°C) to stop the digestion. Pefabloc at a concentration of 0.1 M was recommended to stop intestinal digestion; however, considering the cytotoxic nature of Pefabloc at a concentration ≥ 0.25 mM, Pefabloc was not applied to avoid future cell toxicity.
The samples were centrifuged and filtered through 0.22 μm syringe filters prior to analysis. An Acquity UHPLC system (Waters Corp., Milford, MA, USA), equipped with a Waters Acquity UHPLC photodiode array (PDA) detection system, was used to carry out the analysis. Empower™ software (Waters Corp., USA) was used to process and quantify peaks after recording the signals. A Waters Acquity HSS T3 analytical column (100 mm × 2.1 mm, 1.8 μm particle size) (Waters Corp., USA), with an isocratic mobile phase of 0.1% aqueous (v/v) formic acid at a flow rate of 250 μL/min, was used with an injection volume of 2 μL. The absorbance was measured at room temperature at 245 nm.
T. ferdinandiana digesta and intestinal absorption samples were analyzed for EA. All samples were centrifuged and filtered through 0.22 μm PTFE membrane filters (Millipore, CA, USA) before injection into the chromatographic system. Samples were analyzed on a Waters Acquity UHPLC system (Waters Corp., Milford, MA, USA) equipped with PDA detector. A Waters BEH Shield RP18 Column 130 °A, 1.7 μm (100 mm X 2.1 mm) from Waters Corporation (Milford, Massachusetts, USA) was used. Column temperature was maintained at 40°C, the injection volume was 2 μL, PDA spectrum was scanned from 200 to 400 nm with a rate of 2.5 Hz, and detection was carried out at 254 nm. […] Formic acid 0.1% was used for mobile phase A (Milli-Q water) and phase B (acetonitrile) at a flow rate of 0.4 mL/min.
T. ferdinandiana digesta and intestinal absorption samples were cleaned up with a SPE step ([20]) for OA analysis. Mixed reversed phase-[…] anion exchange sorbent Strata® SAX (55 μm, 70 Å, 500 mg/3 mL) was purchased from Phenomenex (Torrance, CA, USA) and used in this study. The SPE process was maintained through an Analytichem VAC ELUT SPS 24 Port Vacuum Manifold from Agilent Varian (Santa Clara, CA, USA). The SPE columns were sequentially conditioned with 3 mL of methanol and 3 mL of milli-Q water. Digesta and intestinal absorption samples at a volume of 1 mL dripped through the cartridges by gravity (with a flow rate of about 1 mL/min). The cartridges were washed with 3 mL of water and 3 mL of methanol.

Details of series [3]: method as in PMID 23374081. To be noted: blended fruit juice containing orange, pineapple, and kiwi; cited from earlier work.
Series [4] concerns Caco-2-HT29-MTX-E12 coculture cell monolayers. Nature of the series: Intestinal absorption assay (Papp, apical to basolateral) across Caco-2-HT29-MTX-E12 coculture on Transwell. Format: in vitro ADME, human. To be noted: for In vitro permeability (in words): comparison among AA, EA, OA, Ca^2+; for Apparent permeability (Papp): 10:1 dilution, applied 2 h. The procedure: as §1, §2, §3, §4, §5, §6
In general terms: Caco-2 cells form a polarised layer with tight junctions and transporters.

The subject of series [5] is Caco-2 cell barrier. Also noted: method as in PMID 27738446. As to conditions: reported previously; cited from earlier work.
Series [6] has as its system HepG2 cells. On the set-up: method as in PMID 19101929. As to conditions: cited from earlier work.
The mark [7] stands for this setting: Gastric t = 0 (G0), released from T. ferdinandiana fruit matrix.
[8] abbreviates: Gastric t = 60 min (G60), pepsin.
Setting [9] is: Intestinal t = 30 min (I30), pancreatin and bile.
Where [10] appears, read: intestinal phase, time point not stated.

For the molecule `O=C(O)C(=O)O` [OA, oxalic acid], the Papp at 120 min stood at 258 ± 5 ×10⁻⁶ cm/s in series [1] (I30 digesta), 231 ± 1 ×10⁻⁶ cm/s in series [1] (I60 digesta) and 150 ± 7 ×10⁻⁶ cm/s in series [1] (I120 digesta). The Bioaccessibility in series [2] (setting [7]) was 72% and 72 ± 7^c %; in series [2] (setting [8]) it was 85 ± 2^a %; in series [2] (setting [9]) it was 98% and 99^a ± 0.0%; in series [2] (Intestinal t = 60 min (I60)) it was 98 ± 3^a %; in series [2] (Intestinal t = 120 min (I120)), 89% and 89 ± 1^a %; in series [2] (setting [10]), 98%.

Regarding `O=C1O[C@H]([C@@H](O)CO)C(O)=C1O` [AA, ascorbic acid], in series [3], the “Recovery after gastric digestion” value is 83%. Also, the “In vitro permeability (in words)” value in series [4] is “low apparent permeability; also recorded: in vitro permeability was low”. Also, the Papp at 120 min is 41 ± 5 ×10⁻⁶ cm/s in series [1] (I30 digesta), 19 ± 0.4 ×10⁻⁶ cm/s in series [1] (I60 digesta) and 10 ± 0.1 ×10⁻⁶ cm/s in series [1] (I120 digesta). Moreover, the Bioaccessibility in series [2] (setting [7]) is 93% and 93 ± 2^a %; in series [2] (setting [9]), 93% and 93 ± 7^a %; in series [2] (Intestinal t = 60 min (I60)), 100% and 100 ± 1^a %; in series [2] (Intestinal t = 120 min (I120)), 79% and 79 ± 5^a %.

`O=c1oc2c(O)c(O)cc3c(=O)oc4c(O)c(O)cc1c4c23` [EA, ellagic acid]: the “In vitro permeability (in words)” value in series [4] is on record as “highest permeability”. Further, the Papp at 120 min came out at 796 ± 7 ×10⁻⁶ cm/s in series [1] (I30 digesta), 394 ± 4 ×10⁻⁶ cm/s in series [1] (I60 digesta) and 201 ± 2 ×10⁻⁶ cm/s in series [1] (I120 digesta). Further, the Papp in series [5] is 0.347 ± 0.018 /10^−6 cm/s. Further, the Bioaccessibility in series [2] (setting [7]) was 33% and 33 ± 1^b %; in series [2] (setting [8]), 42 ± 1^b %; in series [2] (setting [9]) it was 49% and 49 ± 3^b %; in series [2] (Intestinal t = 60 min (I60)), 49% and 49 ± 1^b %; in series [2] (Intestinal t = 120 min (I120)) it was 48% and 48 ± 1^b %; in series [2] (setting [10]), 48%. In addition, the “Time at which absorption was detected after application” value in series [6] is given as 15 min. Besides, the “Time of peak absorption” value in series [6] is given as 4 h.

In the case of `[Ca+2]` [Ca^2+, calcium], the “Apparent permeability (Papp)” value in series [4] (I30 digesta) is listed as 60 ± 6^a x 10^−6 cm/s; in series [4] (I60 digesta) it was 56 ± 7^a x 10^−6 cm/s; in series [4] (I120 digesta) it was 50 ± 9^a x 10^−6 cm/s. The Bioaccessibility in series [2] (setting [7]) was 67 ± 4^c %; in series [2] (Gastric t = 0 (G0), released from T. ferdinandiana fruit matrix, listed as calcium) it was 67%; in series [2] (setting [8]), 69 ± 1^a %; in series [2] (setting [9]), 90% and 90^a ± 0.0%; in series [2] (Intestinal t = 60 min (I60)) it was 90% and 90 ± 1^c %; in series [2] (Intestinal t = 120 min (I120)), 79% and 79 ± 2^a %. Moreover, the Bioaccessibility in series [2] (setting [10]) was 90%.

Usually Papp stands for a coefficient for how fast a substance crosses the barrier.
